Source: ChEMBL document CHEMBL1201862, “PubChem BioAssay data set” (2004)
Calls of active or inactive are those of the source.

Columns and labels:
Hexokinase-1 = biological target: T1, Hexokinase-1 (Homo sapiens, UniProt P19367); assay: hexokinase 1 activators, dose response, selectivity assay for HKDC1 activator project, biochemical (AID 504762); format: functional
T1 sequence (P19367 whole entry): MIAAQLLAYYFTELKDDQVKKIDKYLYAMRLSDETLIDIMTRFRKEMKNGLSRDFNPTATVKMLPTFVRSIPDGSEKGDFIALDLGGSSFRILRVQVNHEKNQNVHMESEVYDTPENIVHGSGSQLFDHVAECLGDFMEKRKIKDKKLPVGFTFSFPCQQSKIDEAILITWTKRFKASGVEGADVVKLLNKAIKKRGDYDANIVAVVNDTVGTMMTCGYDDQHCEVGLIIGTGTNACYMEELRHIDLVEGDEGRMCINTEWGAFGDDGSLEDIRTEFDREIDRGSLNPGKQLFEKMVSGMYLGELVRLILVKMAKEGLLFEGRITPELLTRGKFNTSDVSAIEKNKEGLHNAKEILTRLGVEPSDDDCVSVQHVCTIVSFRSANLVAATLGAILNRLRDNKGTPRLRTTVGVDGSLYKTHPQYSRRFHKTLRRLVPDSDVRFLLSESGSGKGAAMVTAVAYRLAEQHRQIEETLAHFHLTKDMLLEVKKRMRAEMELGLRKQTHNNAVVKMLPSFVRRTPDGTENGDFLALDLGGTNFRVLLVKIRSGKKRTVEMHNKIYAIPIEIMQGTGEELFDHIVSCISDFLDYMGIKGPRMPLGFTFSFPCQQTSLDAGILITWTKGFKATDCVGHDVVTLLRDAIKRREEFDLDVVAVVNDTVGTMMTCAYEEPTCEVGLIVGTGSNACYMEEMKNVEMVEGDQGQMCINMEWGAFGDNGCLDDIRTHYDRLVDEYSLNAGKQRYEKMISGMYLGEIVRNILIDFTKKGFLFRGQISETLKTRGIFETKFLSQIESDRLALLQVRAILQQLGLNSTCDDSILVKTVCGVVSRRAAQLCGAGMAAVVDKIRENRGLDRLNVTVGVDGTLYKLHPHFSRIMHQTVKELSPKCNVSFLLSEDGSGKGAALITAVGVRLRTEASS

Hexokinase HKDC1 = biological target: T2, Hexokinase HKDC1 (Homo sapiens, UniProt Q2TB90); assay: HKDC1 hexokinase activators, dose response, biochemical, W721R variant (AID 504730); format: functional
T2 sequence (Q2TB90 whole entry): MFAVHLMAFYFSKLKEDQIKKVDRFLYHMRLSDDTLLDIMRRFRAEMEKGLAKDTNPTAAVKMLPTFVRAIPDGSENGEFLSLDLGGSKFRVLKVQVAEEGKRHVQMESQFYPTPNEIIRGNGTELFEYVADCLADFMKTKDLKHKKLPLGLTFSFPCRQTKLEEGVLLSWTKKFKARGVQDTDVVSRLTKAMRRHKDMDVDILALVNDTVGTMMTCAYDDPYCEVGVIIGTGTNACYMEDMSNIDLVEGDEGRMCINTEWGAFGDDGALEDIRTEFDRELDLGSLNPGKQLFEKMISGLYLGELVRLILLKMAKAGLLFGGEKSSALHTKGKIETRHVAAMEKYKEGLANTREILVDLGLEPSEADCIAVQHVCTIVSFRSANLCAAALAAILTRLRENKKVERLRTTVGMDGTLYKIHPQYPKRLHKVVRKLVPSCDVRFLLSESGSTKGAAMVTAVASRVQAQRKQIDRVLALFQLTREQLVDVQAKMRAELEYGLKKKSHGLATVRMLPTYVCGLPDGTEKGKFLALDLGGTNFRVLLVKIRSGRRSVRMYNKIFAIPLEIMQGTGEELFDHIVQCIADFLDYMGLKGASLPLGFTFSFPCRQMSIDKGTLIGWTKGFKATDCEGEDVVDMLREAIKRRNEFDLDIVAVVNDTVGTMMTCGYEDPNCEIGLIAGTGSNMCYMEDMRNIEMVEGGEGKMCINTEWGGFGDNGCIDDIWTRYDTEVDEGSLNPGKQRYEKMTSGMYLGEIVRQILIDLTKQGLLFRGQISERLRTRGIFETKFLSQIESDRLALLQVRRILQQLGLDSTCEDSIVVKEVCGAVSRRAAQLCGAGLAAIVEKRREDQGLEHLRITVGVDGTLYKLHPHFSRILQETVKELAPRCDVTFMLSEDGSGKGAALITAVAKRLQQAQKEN

[1] = biological target: T3, Ubiquitin-conjugating enzyme E2 N (Homo sapiens, UniProt P61088); format: functional
T3 sequence (P61088 whole entry): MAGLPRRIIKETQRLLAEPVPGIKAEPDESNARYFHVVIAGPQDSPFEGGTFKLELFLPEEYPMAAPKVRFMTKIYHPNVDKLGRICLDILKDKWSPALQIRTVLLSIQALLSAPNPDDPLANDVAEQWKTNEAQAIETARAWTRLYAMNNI

Bcl-2-related protein A1 = Bcl-2-related protein A1 (Mus musculus, UniProt Q07440); format: functional;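 note: confirmatory dose–response counterscreen on Bfl-1, used to check hits from a UBC13 polyubiquitin inhibitor campaign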
[2] = biological target: T3, Ubiquitin-conjugating enzyme E2 N; format: functional; remark: listed apart in the source
Cannabinoid receptor 2 [3] = biological target: T4, Cannabinoid receptor 2 (Homo sapiens, UniProt P34972); assay: SAR analysis of antagonists of the Cannabinoid Receptor 2 using an Image-Based Assay. [Related pubchem assays (depositor defined):AID2013, AID2026]; format: functional
Fatty acid synthase [4] = biological target: T5, Fatty acid synthase (Homo sapiens, UniProt P49327); assay: FAS thioesterase domain inhibitors, dose response, biochemical, kinetic fluorescence intensity (AID 624326); format: functional;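 note: rate of fluorescence rise from hydrolysis of a fluorogenic O-methyl fluorescein ester substrate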
CAAX prenyl protease 2 = biological target: T6, CAAX prenyl protease 2 (Saccharomyces cerevisiae S288c, UniProt Q03530); format: biochemical
T6 sequence (Q03530 whole entry): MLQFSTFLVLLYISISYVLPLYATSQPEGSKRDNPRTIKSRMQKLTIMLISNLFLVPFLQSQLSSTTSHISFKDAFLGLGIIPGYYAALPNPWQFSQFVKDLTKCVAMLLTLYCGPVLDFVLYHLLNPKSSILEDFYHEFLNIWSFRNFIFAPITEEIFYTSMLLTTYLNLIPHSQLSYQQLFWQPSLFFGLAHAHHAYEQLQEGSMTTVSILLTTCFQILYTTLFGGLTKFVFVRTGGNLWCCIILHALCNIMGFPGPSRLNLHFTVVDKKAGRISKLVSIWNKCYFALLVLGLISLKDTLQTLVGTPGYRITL

Cannabinoid receptor 1 [5] = biological target: T7, Cannabinoid receptor 1 (Homo sapiens, UniProt P21554); assay: SAR analysis of antagonists of the Cannabinoid Receptor 1 using an Image-Based Assay - Set 2. [Related pubchem assays (depositor defined):AID2013, AID2026]; format: functional
Streptococcus = assay: Group A Streptococcus viability loss, dose response, counter-screen for streptokinase expression inhibitor project, luminescence, BacTiterGlo (AID 1915); format: functional, organism-based; settings: read-out: EC50;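 note: potency for reduction of bacterial viability or growth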
[6] = biological target: T8, Small ubiquitin-related modifier 1 (Homo sapiens, UniProt P63165); assay: inhibitors of SUMO1 peptide binding, dose response, biochemical, fluorescence polarization, uHTS hits (AID 624382); format: functional; settings: read-out: IC50_Mean
[7] = biological target: T9, G-protein coupled receptor 35 (Homo sapiens, UniProt Q9HC97); assay: SAR analysis of Antagonists of the GPR35 Receptor using an Image-Based Assay - Set 3. [Related pubchem assays (depositor defined):AID2013, AID2026]; format: functional
Cannabinoid receptor 1 [8] = biological target: T7, Cannabinoid receptor 1; assay: SAR analysis of agonists of the Cannabinoid Receptor 1 using an Image-Based Assay - Set 2. [Related pubchem assays (depositor defined):AID2013, AID2026]; format: functional
Trypsin = Trypsin (Sus scrofa, UniProt P00761); assay: porcine trypsin inhibitors, dose response, selectivity assay for Rce1 protease inhibitor project, biochemical, quenched peptide fluorescence, cherry-pick (AID 488789)
Cannabinoid receptor 2 [9] = biological target: T4, Cannabinoid receptor 2; assay: SAR analysis of agonists of the Cannabinoid Receptor 2 using an Image-Based Assay. [Related pubchem assays (depositor defined):AID2013, AID2026]; format: functional
Fatty acid synthase [10] = biological target: T5, Fatty acid synthase; assay: FAS thioesterase domain inhibitors, dose response, biochemical, endpoint fluorescence intensity, uHTS hits (AID 624327); format: functional;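 note: fluorescence from hydrolysis of an O-methyl fluorescein acyl ester substrate by the enzyme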
[11] = biological target: T9, G-protein coupled receptor 35; assay: SAR analysis of Agonists of the GPR35 Receptor using an Image-Based Assay - Set 2. [Related pubchem assays (depositor defined):AID2013, AID2026]; format: functional
[12] = biological target: T10, G-protein coupled receptor 55 (Homo sapiens, UniProt Q9Y2T6); assay: GPR55 antagonists blocking LPI-driven arrestin recruitment, primary screen, imaging, U2OS, beta-arrestin-GFP, LPI agonist (AID 2013); format: functional;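 note: antagonist potency measured as reduced agonist-driven arrestin aggregation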
[13] = biological target: T8, Small ubiquitin-related modifier 1; assay: inhibitors of SUMO1 partner interactions, dose response, biochemical, FRET (AID 624383); format: functional; settings: read-out: IC50_Mean
[14] = biological target: T10, G-protein coupled receptor 55; assay: GPR55 antagonist potency of analogs, SAR follow-up, imaging, U2OS, beta-arrestin-GFP, LPI agonist, set 2 (AID 2820); format: functional
Streptokinase A = biological target: T11, Streptokinase A (Streptococcus pyogenes serotype M1, UniProt P10520); assay: S. pyogenes streptokinase expression inhibitors, potency, dose response, plasminogen activation absorbance, OD405 (AID 1914); format: functional, Streptococcus pyogenes M1 GAS;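 note: secreted streptokinase activity via plasminogen activation per viability signal from cell pellet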
T11 sequence (P10520 whole entry): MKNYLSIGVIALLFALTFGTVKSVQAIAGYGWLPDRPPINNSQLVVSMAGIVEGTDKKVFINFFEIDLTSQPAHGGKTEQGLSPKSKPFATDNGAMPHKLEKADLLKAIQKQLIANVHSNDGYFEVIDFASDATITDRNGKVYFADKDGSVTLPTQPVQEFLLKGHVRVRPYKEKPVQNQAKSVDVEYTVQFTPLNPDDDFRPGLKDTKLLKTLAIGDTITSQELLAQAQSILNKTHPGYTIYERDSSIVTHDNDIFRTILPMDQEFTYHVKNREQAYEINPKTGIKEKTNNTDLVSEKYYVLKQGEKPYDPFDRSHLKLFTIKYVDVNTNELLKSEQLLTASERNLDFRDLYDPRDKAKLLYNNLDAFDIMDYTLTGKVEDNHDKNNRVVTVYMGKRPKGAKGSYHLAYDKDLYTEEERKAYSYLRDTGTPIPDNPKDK

[15] = biological target: T9, G-protein coupled receptor 35; assay: SAR analysis of Agonists of the GPR35 Receptor using an Image-Based Assay - Set 4. [Related pubchem assays (depositor defined):AID2013, AID2026]; format: functional
Cannabinoid receptor 1 [16] = biological target: T7, Cannabinoid receptor 1; assay: SAR analysis of antagonists of the Cannabinoid Receptor 1 using an Image-Based Assay - Set 4. [Related pubchem assays (depositor defined):AID2013, AID2026]; format: functional
Cannabinoid receptor 2 [17] = biological target: T4, Cannabinoid receptor 2; assay: SAR analysis of antagonists of the Cannabinoid Receptor 2 using an Image-Based Assay - Set 3. [Related pubchem assays (depositor defined):AID2013, AID2026]; format: functional
[18] = biological target: T9, G-protein coupled receptor 35; assay: SAR analysis of Antagonists of the GPR35 Receptor using an Image-Based Assay - Set 6. [Related pubchem assays (depositor defined):AID2013, AID2026]; format: functional
Cannabinoid receptor 2 [19] = biological target: T4, Cannabinoid receptor 2; assay: SAR analysis of agonists of the Cannabinoid Receptor 2 using an Image-Based Assay - Set 3. [Related pubchem assays (depositor defined):AID2013, AID2026]; format: functional
[20] = biological target: T10, G-protein coupled receptor 55; assay: SAR Analysis of Selective Antagonists of GPR55 using an Image-Based Assay - Set 4. [Related pubchem assays (depositor defined):AID2013, AID2026]; format: functional
Cannabinoid receptor 1 [21] = biological target: T7, Cannabinoid receptor 1; assay: SAR analysis of agonists of the Cannabinoid Receptor 1 using an Image-Based Assay - Set 4. [Related pubchem assays (depositor defined):AID2013, AID2026]; format: functional

T4 sequence (P34972 whole entry, the tested form may be a part): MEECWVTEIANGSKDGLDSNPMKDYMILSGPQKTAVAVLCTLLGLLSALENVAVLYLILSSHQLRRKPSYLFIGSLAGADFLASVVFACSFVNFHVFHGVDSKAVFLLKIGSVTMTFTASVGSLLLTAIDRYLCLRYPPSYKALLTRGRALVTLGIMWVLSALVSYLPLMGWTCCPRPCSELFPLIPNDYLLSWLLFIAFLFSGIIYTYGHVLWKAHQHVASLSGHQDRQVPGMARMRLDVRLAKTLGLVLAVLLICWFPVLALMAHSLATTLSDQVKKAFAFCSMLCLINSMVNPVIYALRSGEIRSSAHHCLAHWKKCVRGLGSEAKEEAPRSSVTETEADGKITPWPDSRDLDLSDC
T9 sequence (Q9HC97 whole entry): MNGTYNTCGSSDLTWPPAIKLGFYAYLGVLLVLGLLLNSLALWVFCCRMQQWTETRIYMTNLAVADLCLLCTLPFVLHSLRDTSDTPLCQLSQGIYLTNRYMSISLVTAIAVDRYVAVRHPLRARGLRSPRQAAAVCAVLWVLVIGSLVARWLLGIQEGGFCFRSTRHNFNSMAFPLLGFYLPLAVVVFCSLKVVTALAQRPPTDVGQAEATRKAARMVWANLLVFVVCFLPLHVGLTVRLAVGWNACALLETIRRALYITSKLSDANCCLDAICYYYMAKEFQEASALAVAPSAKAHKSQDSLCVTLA
T7 sequence (P21554 whole entry): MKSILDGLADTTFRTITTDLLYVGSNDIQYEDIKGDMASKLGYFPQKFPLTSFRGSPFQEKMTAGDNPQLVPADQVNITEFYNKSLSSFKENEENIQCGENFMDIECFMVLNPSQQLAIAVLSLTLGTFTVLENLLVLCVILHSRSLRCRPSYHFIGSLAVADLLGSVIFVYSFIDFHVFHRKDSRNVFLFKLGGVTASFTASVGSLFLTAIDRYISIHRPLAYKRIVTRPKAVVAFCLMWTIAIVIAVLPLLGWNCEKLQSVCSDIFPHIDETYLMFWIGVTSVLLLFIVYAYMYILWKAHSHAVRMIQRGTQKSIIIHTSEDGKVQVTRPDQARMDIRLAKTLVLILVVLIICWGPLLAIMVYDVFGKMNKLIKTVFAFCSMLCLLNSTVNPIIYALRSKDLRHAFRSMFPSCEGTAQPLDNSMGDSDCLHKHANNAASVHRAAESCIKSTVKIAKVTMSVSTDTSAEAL
T10 sequence (Q9Y2T6 whole entry): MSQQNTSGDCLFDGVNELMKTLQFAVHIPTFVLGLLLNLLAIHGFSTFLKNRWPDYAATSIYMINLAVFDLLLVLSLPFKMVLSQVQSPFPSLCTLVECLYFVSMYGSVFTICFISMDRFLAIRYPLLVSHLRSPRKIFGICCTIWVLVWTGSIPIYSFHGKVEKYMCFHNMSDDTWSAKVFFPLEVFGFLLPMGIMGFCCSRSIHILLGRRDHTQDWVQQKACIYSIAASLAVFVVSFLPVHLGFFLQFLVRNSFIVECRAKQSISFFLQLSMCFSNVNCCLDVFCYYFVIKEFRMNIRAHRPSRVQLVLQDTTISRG
T8 sequence (P63165 whole entry): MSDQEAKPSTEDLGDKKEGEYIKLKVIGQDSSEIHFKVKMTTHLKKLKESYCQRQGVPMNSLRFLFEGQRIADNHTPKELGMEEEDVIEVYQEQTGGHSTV
T5 sequence (P49327 whole entry, the tested form may be a part): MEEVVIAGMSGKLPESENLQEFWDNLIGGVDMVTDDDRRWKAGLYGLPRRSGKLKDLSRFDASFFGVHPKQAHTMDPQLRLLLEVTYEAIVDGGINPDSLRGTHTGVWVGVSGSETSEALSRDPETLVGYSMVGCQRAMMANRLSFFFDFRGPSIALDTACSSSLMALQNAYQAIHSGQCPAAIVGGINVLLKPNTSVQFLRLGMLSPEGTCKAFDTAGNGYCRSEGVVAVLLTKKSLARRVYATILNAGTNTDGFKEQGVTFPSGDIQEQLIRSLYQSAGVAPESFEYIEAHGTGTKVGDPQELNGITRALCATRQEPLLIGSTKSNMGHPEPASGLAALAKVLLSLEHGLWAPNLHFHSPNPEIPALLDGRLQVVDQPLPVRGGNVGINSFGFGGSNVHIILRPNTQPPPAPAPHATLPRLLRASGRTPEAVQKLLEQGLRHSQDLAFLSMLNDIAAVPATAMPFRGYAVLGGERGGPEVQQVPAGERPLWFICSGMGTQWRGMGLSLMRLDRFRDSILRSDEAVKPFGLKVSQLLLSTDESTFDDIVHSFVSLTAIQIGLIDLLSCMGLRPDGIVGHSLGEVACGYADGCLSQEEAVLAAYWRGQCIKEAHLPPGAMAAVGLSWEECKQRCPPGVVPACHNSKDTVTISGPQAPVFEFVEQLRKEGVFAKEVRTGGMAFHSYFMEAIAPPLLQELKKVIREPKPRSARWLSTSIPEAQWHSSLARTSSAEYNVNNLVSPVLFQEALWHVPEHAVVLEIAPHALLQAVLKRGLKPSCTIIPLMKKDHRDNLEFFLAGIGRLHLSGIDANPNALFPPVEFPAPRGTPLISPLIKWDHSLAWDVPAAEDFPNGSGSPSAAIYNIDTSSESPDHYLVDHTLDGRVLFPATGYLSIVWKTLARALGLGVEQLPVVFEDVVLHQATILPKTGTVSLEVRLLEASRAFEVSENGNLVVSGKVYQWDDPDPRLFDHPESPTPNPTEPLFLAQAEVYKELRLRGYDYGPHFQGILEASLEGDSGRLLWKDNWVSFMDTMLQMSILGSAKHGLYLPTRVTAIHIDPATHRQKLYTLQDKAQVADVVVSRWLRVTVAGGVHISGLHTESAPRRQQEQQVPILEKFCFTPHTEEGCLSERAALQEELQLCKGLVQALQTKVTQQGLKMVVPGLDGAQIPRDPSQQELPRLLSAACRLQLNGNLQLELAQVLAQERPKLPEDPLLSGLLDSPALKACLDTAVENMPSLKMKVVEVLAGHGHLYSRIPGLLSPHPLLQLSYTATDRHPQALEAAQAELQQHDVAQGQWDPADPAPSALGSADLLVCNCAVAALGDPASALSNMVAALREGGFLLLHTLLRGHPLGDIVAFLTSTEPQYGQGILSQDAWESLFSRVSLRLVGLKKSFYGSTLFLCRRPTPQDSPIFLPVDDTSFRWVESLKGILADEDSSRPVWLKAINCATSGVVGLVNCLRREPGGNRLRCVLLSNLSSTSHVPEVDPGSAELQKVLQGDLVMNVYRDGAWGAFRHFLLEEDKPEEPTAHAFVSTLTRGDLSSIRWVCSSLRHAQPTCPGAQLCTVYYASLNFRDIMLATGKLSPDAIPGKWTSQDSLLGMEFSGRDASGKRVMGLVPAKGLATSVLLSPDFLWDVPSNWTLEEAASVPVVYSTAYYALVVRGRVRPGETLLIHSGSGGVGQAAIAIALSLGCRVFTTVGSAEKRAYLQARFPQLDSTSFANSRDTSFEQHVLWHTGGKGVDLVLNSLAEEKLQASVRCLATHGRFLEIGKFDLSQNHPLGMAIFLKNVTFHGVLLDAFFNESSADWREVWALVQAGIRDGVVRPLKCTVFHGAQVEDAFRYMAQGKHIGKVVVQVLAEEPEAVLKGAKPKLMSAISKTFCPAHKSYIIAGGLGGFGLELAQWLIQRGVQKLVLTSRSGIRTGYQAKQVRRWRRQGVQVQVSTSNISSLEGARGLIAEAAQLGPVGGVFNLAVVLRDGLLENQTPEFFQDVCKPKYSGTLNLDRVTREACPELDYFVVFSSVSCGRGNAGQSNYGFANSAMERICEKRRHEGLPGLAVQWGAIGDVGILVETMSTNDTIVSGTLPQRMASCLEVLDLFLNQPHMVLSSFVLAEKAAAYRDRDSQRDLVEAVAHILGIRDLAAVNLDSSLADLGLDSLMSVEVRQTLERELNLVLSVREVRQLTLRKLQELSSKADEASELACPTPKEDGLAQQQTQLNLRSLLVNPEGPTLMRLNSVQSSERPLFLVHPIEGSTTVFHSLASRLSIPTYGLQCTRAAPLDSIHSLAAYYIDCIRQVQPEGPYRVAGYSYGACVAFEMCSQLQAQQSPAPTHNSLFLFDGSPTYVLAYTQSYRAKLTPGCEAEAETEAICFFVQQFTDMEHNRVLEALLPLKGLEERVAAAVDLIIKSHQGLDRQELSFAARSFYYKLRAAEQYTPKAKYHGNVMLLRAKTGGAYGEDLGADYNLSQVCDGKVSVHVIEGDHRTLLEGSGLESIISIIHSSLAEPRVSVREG
Chain of Bcl-2-related protein A1 (Q07440 whole entry): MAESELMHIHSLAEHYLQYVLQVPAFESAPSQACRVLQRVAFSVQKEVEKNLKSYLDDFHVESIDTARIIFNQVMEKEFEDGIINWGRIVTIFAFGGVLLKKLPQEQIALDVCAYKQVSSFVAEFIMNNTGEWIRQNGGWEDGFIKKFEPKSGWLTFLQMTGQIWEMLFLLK
Chain of Trypsin (P00761 whole entry): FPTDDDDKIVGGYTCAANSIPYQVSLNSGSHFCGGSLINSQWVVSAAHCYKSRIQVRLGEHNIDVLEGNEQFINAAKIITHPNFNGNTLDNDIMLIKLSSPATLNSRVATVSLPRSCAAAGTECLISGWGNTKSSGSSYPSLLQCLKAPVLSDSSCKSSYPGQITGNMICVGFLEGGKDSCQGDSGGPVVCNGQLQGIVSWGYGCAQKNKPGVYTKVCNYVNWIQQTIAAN

O=S(=O)(NC1c2cccc3cccc(c23)C1N1CCN(CCO)CC1)c1ccccc1 (stereo not drawn)
active: EC50 (Hexokinase HKDC1) 18.1 µM
inactive: EC50 (Hexokinase-1) 24 µM

CCCCN(C(=O)c1ccco1)c1nnc(-c2cc(OC)c(OC)c(OC)c2)s1
inactive: IC50 (Bcl-2-related protein A1) > 20 µM
active: IC50 [1] 10.4 µM | IC50 [2] 9.79 µM

CC(C)(C)OC(=O)N1CCC(c2cc(O)n3ncc(C(=O)Nc4ccc(F)c(Cl)c4)c3n2)CC1
active: IC50 (Fatty acid synthase [4]) 5.64 µM | AC50 (CAAX prenyl protease 2) 17.8 µM | AC50 (Trypsin) 77.2 µM | IC50 (Fatty acid synthase [10]) 8.24 µM | EC50 [11] 5.23 µM | IC50 [12] 1.41 µM | IC50 [13] 9.68 µM | IC50 [14] 0.948 µM
inactive: IC50 (Cannabinoid receptor 2 [3]) > 32 µM | IC50 (Cannabinoid receptor 1 [5]) 10.5 µM | IC50 [6] > 66.6 µM | IC50 [7] 25.4 µM | EC50 (Cannabinoid receptor 1 [8]) > 32 µM | EC50 (Cannabinoid receptor 2 [9]) > 32 µM
> 150 µM (not active): EC50 (Streptococcus) | EC50 (Streptokinase A)

Cc1nc(N2CCN(C(=O)C3CCCO3)CC2)c2c3c(sc2n1)CCCC3 (stereo not drawn)
inactive: EC50 [15] > 32 µM | IC50 (Cannabinoid receptor 1 [16]) > 32 µM | IC50 (Cannabinoid receptor 2 [17]) > 32 µM | IC50 [18] > 32 µM | EC50 (Cannabinoid receptor 2 [19]) > 32 µM | IC50 [20] > 32 µM | EC50 (Cannabinoid receptor 1 [21]) > 32 µM
